Test results reported in US9598434B2, “Benzazepine compound” (Astellas Pharma Inc., priority 2010, dated 2017).
Like-named read-outs stand apart in the source and are kept apart here.

How the values were obtained:
[1] = test system: Hartley female guinea pigs; assay: Measurement of external urethral sphincter electromyography; assay type: in vivo, guinea pig; details: Cavia porcellus, read-out: external urethral sphincter electromyography activity
Text: The activating action of the compound of the formula (I) on the urethral sphincter electromyography was confirmed with the method shown below.
Hartley female guinea pigs with a body weight of 250 to 350 g were anesthetized with urethane (Sigma). The guinea pigs were fixed in a supine position and catheters (PE-50; Clay Adams) for administration of test compounds were inserted into the jugular vein. Further, a catheters (PE-160; Clay Adams), for an infusion of physiological saline into bladder and measurement of the intravesical pressure, were inserted through an incision into the dome of the bladder. Further, in order to measure the external urethral sphincter electromyography, two electrodes were inserted into both the left and right sides of the urethral opening to the urethral sphincter. The electrodes for measuring base voltages were placed under the skin of the hind part. The bladder catheter was branched over a three-way stopcock, and one was connected with a 50 mL syringe (Terumo) fixed to an infusion pump (Terumo). The other was connected to a pressure transducer (DX-100; Nihon Kohden Corporation) to transfer the signal of the transducer through an amplifier (AP-630G; Nihon Kohden Corporation) and a data acquisition system (PowerLab; AD Instruments) to a computer and record on a hard disk. The electrodes for electromyography measurement were connected to a control unit (JB-101J; Nihon Kohden Corporation) to transfer the signal through an amplifier (AP-651J; Nihon Kohden Corporation) and a data acquisition system (PowerLab; AD Instruments) to a computer and record on a hard disk. Further, the data were analyzed on the computer using a software (Chart; AD Instruments). […] The electromyography activity was analyzed by taking the lowest potential amplitude as a standard during the stabilization period and using the firing frequency over the standard amplitude as an indicator. At internals between the respective urinations (urine filling phase), the activity of the urethral sphincter electromyography was analyzed and its average value was calculated. After the stabilization period, the solvent and the test compound were administered at an increased dose at an interval of 40 minutes through the catheter placed into the jugular vein. The urethral sphincter electromyography activity after the administration of the solvent was taken as 100% and the urethral sphincter electromyography activity after the administration of the test compound was denoted as a percentage (%) of the electromyography activity after the administration of the solvent.

[2] = biological target: T1, human 5-HT2C receptor (Homo sapiens, UniProt P28335); assay: Evaluation of 5-HT2C receptor agonist activity (intracellular calcium increase, FLIPR, CHO cells stably expressing the receptor); assay type: cell-based; details: for Emax: CHO, read-out: 5-HT2C agonist activity Emax
T1 construct: expressed in transfected cells
T1 sequence (P28335 33-458): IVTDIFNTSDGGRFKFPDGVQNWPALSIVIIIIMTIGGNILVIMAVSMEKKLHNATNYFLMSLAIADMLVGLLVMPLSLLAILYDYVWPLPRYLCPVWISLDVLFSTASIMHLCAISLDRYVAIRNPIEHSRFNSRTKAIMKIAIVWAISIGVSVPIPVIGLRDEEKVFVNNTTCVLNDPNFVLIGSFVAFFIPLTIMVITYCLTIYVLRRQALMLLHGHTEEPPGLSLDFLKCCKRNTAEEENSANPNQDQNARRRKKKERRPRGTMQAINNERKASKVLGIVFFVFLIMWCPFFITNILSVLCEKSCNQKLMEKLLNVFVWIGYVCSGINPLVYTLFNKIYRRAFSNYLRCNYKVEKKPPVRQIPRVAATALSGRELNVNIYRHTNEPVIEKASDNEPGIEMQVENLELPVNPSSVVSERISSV
Method: The agonist activity of the compound of the formula (I) on the 5-HT2C receptor was confirmed by the method shown below.
The human 5-HT2C receptor agonist activity was evaluated by measuring the increase of the ligand-dependent intracellular calcium concentration. CHO cells which stably expressing a human 5-HT2C receptor were used. The receptor-expressing cells were prepared by transfecting the genes of the human 5-HT2C receptor (Accession numbers: AF498983 (5-HT2C)) into CHO cells (dihydrofolic acid-deficient strain, DS Pharma Biomedical Co., Ltd.)) using a pEF-BOS vector (Nucleic Acids Research, vol. 18, No. 17). After transcription, the 5-HT2C is known to be subjected to RNA editing to cause differences in three kinds of amino acids, resulting in fourteen receptor isoforms. Among them, cells stably expressing an INI type of 5-HT2C receptor which had not been subjected to editing were used. Cells used for evaluation were cultured in a 10% fetal bovine serum (FBS)-containing medium (trade name: α-MEM, Invitrogen) at 37° C. and 5% carbon dioxide. On the day before the evaluation, the cells were suspended in a serum-free medium (trade name: CD-CHO, Invitrogen) containing 8 mM L-glutamine (trade name: L-glutamine 200 mM, Invitrogen, added to the medium at a final concentration of 8 mM) and dispensed into a 96-well poly-D-lysine-coated plate (trade name: Biocoat PDL96W Black/Clear, Japan Becton, Dickinson and Company)) at 4×10^4 cells/well and cultured at 37° C. and 5% carbon dioxide overnight. A solution including a washing solution (mixture of Hank's Balanced Salt Solution (HBSS)-sodium hydroxide (NaOH), 20 mM 2-[4-(2-hydroxyethyl)-1-piperazinyl]ethanesulfonic acid (HEPES)-sodium hydroxide (NaOH), 2.5 mM probenecid, and 0.1% bovine serum albumin (BSA)), and a 4 μM fluorescent reagent (trade name: Fluo4-AM, Dojindo Co., Ltd.) was used as a loading buffer and the medium of the 96-well plate which had been cultured overnight was replaced with a loading buffer. After leaving to stand (with light-shielding) at room temperature for 3 hours, the cells were washed with a plate washer (trade name: ELx405, BioTek Instruments, Inc.) in which a washing solution had been set up. The plates of the washed cells were set up in a system for measuring a calcium (Ca) concentration in a cell (trade name: FLIPR, Molecular Devices, Inc.). In this device, a test compound that had been dissolved in dimethyl sulfoxide and diluted in the washing solution at a predetermined concentration was added and set up to measure a change in the Ca concentrations in a cell. The difference between a maximum value and a minimum value in the change of the intracellular Ca concentration was determined and kept as measurement data.
Taking the maximum reaction of the 5-HT (agonist action with addition of 5-HT 10 μM) as 100% and the reaction of a solvent alone as 0%, the efficacy (Emax (%)) and potency (EC50 (nM)) of the present invention compound to the maximum reaction of the 5-HT were calculated with a logistic regression method.

[3] = intravenous administration at 3 mg/kg, urethane-anesthetized guinea pigs, activity after solvent taken as 100%
[4] = CHO cells stably expressing INI type human 5-HT2C receptor, intracellular Ca increase, logistic regression, read-out: 5-HT2C agonist activity EC50

Row | SMILES | response vs control in vivo at 3 mg/kg [1, 3] [%] | EC50 [2, 4] [nM] | Emax [2] [%] | melting point [°C] | response vs control in vivo at 3 mg/kg ([1]; iv) [%] | EC50 [2] [nM]
1 | CC(C)CN1CCCc2cc3c(cc21)CCNCC3 [Example 38] | ≥ 200 | 2.1 | 94 |  |  | 
2 | COCCCN1CCOc2cc3c(cc21)CCNCC3.O=C(O)/C=C/C(=O)O [Example 59] | ≥ 200 | 7.1 | 108 | 141 to 145 |  | 
3 | COCCN1CCCc2cc3c(c(C4CC4)c21)CCNCC3 [Example 81] | ≥ 200 | 0.84 | 114 |  |  | 
4 | COCCN1CCOc2cc3c(c(C4CC4)c21)CCNCC3 [Example 88] | ≥ 200 | 1.1 | 105 |  |  | 
5 | CCOCCN1CCOc2cc3c(c(C4CC4)c21)CCNCC3.O=C(O)/C=C/C(=O)O [Example 104] | ≥ 200 | 1.1 | 107 | 140 to 145 |  | 
6 | COCCCN1CCOc2cc3c(c(C4CC4)c21)CCNCC3.O=C(O)/C=C/C(=O)O [Example 106] | ≥ 200 | 1.1 | 112 | 169 to 171 |  | 
7 | COCCN1CCOc2cc3c(c(Br)c21)CCNCC3 [Example 135] | ≥ 200 | 2.9 | 112 |  |  | 
8 | FCCCN1CCOc2cc3c(c(C4CC4)c21)CCNCC3.O=C(O)/C=C/C(=O)O [Example 141] |  |  | 100 | 144 to 147 | ≥ 200 | 0.36
9 | c1c2c(c(C3CC3)c3c1OCCN3C[C@@H]1CCCO1)CCNCC2 [Example 215] |  | 1 | 96 | 154 to 156 | ≥ 200 | 
10 | CO[C@H](C)CN1CCOc2cc3c(c(C4CC4)c21)CCNCC3.O=C(O)/C=C/C(=O)O [Example 243] | ≥ 200 | 0.53 | 96 | 133 to 136 |  | 
11 | Clc1cccc(CN2CCOc3cc4c(c(C5CC5)c32)CCNCC4)c1.O=C(O)CCC(=O)O [Example 258] | ≥ 200 | 1.9 | 97 | 139 to 141 |  | 
12 | O=C(O)/C=C/C(=O)O.c1c2c(c(C3CC3)c3c1OCCN3CC1CCCOC1)CCNCC2 (stereo not shown) [Example 263] | ≥ 200 | 2.8 | 96 | 186 to 189 |  | 
13 | Fc1ccccc1CN1CCOc2cc3c(c(C4CC4)c21)CCNCC3.O=C(O)/C=C/C(=O)O [Example 265] | ≥ 200 | 1.3 | 97 | 133 to 136 |  | 
14 | O=C(O)/C=C/C(=O)O.c1ccc2c(c1)OCC(CN1CCOc3cc4c(c(C5CC5)c31)CCNCC4)O2 (stereo not shown) [Example 267] | ≥ 200 | 0.51 | 99 | 179 to 182 |  | 
15 | c1ccc(OCCN2CCOc3cc4c(c(C5CC5)c32)CCNCC4)cc1 [Example 268] | ≥ 200 | 0.92 | 99 |  |  | 
16 | Cc1ccccc1CN1CCOc2cc3c(c(C4CC4)c21)CCNCC3.O=C(O)/C=C/C(=O)O [Example 276] | ≥ 200 | 6.4 | 104 | 163 to 166 |  | 
17 | Cc1cccc(CN2CCOc3cc4c(c(C5CC5)c32)CCNCC4)c1.O=C(O)/C=C/C(=O)O [Example 277] | ≥ 200 | 2.3 | 95 | 192 to 195 |  | 
18 | Fc1ccc(F)c(CN2CCOc3cc4c(c(C5CC5)c32)CCNCC4)c1 [Example 283] | ≥ 200 | 1.7 | 90 |  |  | 
19 | CO[C@H](CF)CN1CCOc2cc3c(c(C4CC4)c21)CCNCC3 [Example 287] | ≥ 200 | 1 | 97 |  |  | 
20 | COCc1cccc(CN2CCOc3cc4c(c(C5CC5)c32)CCNCC4)c1.O=C(O)/C=C/C(=O)O [Example 288] | ≥ 200 | 0.64 | 90 | 190 to 193 |  | 
21 | COCCN1c2c(cc3c(c2C2CC2)CCNCC3)OC[C@@H]1C [Example 292] | ≥ 200 | 0.65 | 93 |  |  | 
22 | N#Cc1cc(F)c(OCCN2CCOc3cc4c(c(C5CC5)c32)CCNCC4)c(F)c1 [Example 297] | ≥ 200 | 0.71 | 96 |  |  | 
23 | COc1cccc(CN2CCOc3cc4c(c(C5CC5)c32)CCNCC4)c1 [Example 299] | ≥ 200 | 1 | 98 |  |  | 
